According to publication PMC9406419, “OATD-02 Validates the Benefits of Pharmacological Inhibition of Arginase 1 and 2 in Cancer” (Cancers, 2022):

Columns and labels:
[1] = target: T1, recombinant human ARG1 (Homo sapiens, UniProt P05089); assay: Recombinant arginase inhibition assay (colorimetric urea detection), ARG1; type: biochemical; settings: recombinant human ARG1, 10 mM L-arginine, 37 °C, 1 h, pH 7.4
T1 construct: made in house; host or cells: E. coli
T1 sequence (P05089 1-322): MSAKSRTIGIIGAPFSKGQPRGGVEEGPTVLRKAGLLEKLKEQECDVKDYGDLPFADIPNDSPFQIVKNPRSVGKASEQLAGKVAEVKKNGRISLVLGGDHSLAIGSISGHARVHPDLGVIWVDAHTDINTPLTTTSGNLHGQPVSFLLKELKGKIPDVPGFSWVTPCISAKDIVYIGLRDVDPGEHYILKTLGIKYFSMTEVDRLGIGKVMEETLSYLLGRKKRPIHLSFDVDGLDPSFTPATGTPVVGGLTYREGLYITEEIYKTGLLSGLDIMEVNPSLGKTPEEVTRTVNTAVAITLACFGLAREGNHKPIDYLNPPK
Description: The enzymatic reaction was carried out at 37 °C for 1 h in the assay buffer (100 mM sodium phosphate buffer, 130 mM NaCl, pH 7.4) with the addition of 1 mg/mL BSA in the presence of 200 µM MnCl2 (enzyme cofactor), 10 mM (for ARG1) or 20 mM (for ARG2) of L-arginine hydrochloride (enzyme substrate), and serial dilutions of the test compounds. The inhibition of the arginase activity was determined by colorimetric detection of produced urea, as previously described [29] with minor changes. Briefly, 150 µL of freshly prepared developing reagent (2 mM o-phthaldialdehyde (OPA), 2 mM N-(1-naphthyl)ethylenediamine dihydrochloride (NED), 50 mM boric acid, 1 M sulfuric acid, 0.03% Brij-35) was added to each well, incubated for 20 min at RT, then the absorbance at 515 nm was measured. Normalized values were fitted to a four-parameter equation using GraphPad Prism and IC50 values were determined.

[2] = test system: CT26 tumours; assay: Syngeneic CT26 model, combination with epacadostat and anti-PD-L1 antibody; type: in vivo, mouse; settings: suboptimal doses: OATD-02 50 mg/kg PO BID; epacadostat 30 mg/kg PO BID; anti-PD-L1 2.5 mg/kg IP days 8, 10, 12, 14, 16
Description: CT26 and K562 in vivo experiments were conducted at Molecure SA. All experimental procedures were approved by the 1st Local Ethics Committee in Warsaw (Poland). For the syngeneic CT26 model, 7–8-week old BALB/c females (n = 9–18 per group, BALB/cAnNCrl, Charles River Laboratories) were injected subcutaneously in the right flank with 5 × 10^5 CT26 cells. […] Anti-PD-L1 antibody (InVivoPlus anti-mouse PD-L1, clone 10F.9G2, BioXCell, lot 615416D1) was injected intraperitoneally at 2.5 mg/kg on days: 8, 10, 12, 14 and 16 post tumour cells inoculation. Control groups received vehicle (saline) or isotype antibody (InVivoPlus rat IgG2b, anti-KLH, BioXCell, lot 629816D1). For the xenograft K562 model, 7–8 week-old athymic nude mice (n = 8–11 per group, Crl:NU(NCr)-Foxn1^nu, Charles River Laboratories) or NK cell-deficient Fox Chase SCID Beige mice (n = 10–12 per group, CB17.Cg-Prkdc^scidLyst^bg-J/Crl, Charles River Laboratories) were injected subcutaneously in the right flank with 1 × 10^7 K562 cells. […] Tumour volume measured by a digital calliper (width × length × depth × π/6) was recorded three times per week. Animals were euthanized when tumours were necrotized or volume exceeded 2000 mm^3. Renca in vivo efficacy study was performed at Crown Biosciences Inc. (Taicang, China). […] Tumour volumes (length × width^2 × 0.5) were measured twice per week. […]

[3] = test system: Renca tumours; assay: Syngeneic Renca renal adenocarcinoma model with plasma L-arginine and tumour flow cytometry; type: in vivo, mouse
Description: CT26 and K562 in vivo experiments were conducted at Molecure SA. All experimental procedures were approved by the 1st Local Ethics Committee in Warsaw (Poland). For the syngeneic CT26 model, 7–8-week old BALB/c females (n = 9–18 per group, BALB/cAnNCrl, Charles River Laboratories) were injected subcutaneously in the right flank with 5 × 10^5 CT26 cells. […] Anti-PD-L1 antibody (InVivoPlus anti-mouse PD-L1, clone 10F.9G2, BioXCell, lot 615416D1) was injected intraperitoneally at 2.5 mg/kg on days: 8, 10, 12, 14 and 16 post tumour cells inoculation. Control groups received vehicle (saline) or isotype antibody (InVivoPlus rat IgG2b, anti-KLH, BioXCell, lot 629816D1). For the xenograft K562 model, 7–8 week-old athymic nude mice (n = 8–11 per group, Crl:NU(NCr)-Foxn1^nu, Charles River Laboratories) or NK cell-deficient Fox Chase SCID Beige mice (n = 10–12 per group, CB17.Cg-Prkdc^scidLyst^bg-J/Crl, Charles River Laboratories) were injected subcutaneously in the right flank with 1 × 10^7 K562 cells. […] Tumour volume measured by a digital calliper (width × length × depth × π/6) was recorded three times per week. Animals were euthanized when tumours were necrotized or volume exceeded 2000 mm^3. Renca in vivo efficacy study was performed at Crown Biosciences Inc. (Taicang, China). All experimental procedures on animals were approved by the Institutional Animal Care and Use Committee (IACUC) and conducted in accordance with the regulations of the Association for Assessment and Accreditation of Laboratory Animal Care (AAALAC). For the syngeneic Renca model, 6–7 week-old BALB/c females (n = 12 per group, Shanghai Lingchang Biotechnology, Shanghai, China) were injected subcutaneously in the right flank with 1 × 10^6 Renca cells. Tumour volumes (length × width^2 × 0.5) were measured twice per week. OATD-02 was dosed twice per day at 75 mg/kg by oral gavage. A dosing holiday was given to individuals with bodyweight loss exceeding 15% of the initial body weight and the treatment was resumed when the bodyweight loss recovered to less than 10%. Due to the cachexic nature of the Renca model, all animals were supplemented with DietGel to help maintain their body weight.
Dissected tumours were dissociated to obtain single-cell suspensions for antibody staining and immune cell assessment. Prior to the antibody staining, dead cells were labelled with the Fixable Viability Due eFluor™ 780 (eBiosciences, San Diego, CA, USA). The following anti-mouse antibodies were used for flow cytometry: anti-CD45-FITC (clone 30-F11, Biolegend, San Diego, CA, USA), anti-CD3-BUV395 (clone 145-2C11, BD), anti-CD4-BV421 (clone GK1.5, Biolegend), anti-CD8-PE-eFluor610 (clone 53-6.7, eBiosciences), anti-Foxp3-PE (clone FJK-16S, eBiosciences), anti-CD11b-PE-Cy7 (clone M1/70, Biolegend), anti-F4/80-BV510 (clone BM8, Biolegend), and anti-Gr1-APC (clone RB6-8C5, Biolegend).
The concentrations of OATD-02, the reference ARGi or L-arginine were determined in plasma samples or tumour homogenates using liquid chromatography coupled with tandem mass spectrometry (LC-MS/MS). Sample preparation was based on protein precipitation using acetonitrile. The resulting supernatants were analysed using hydrophilic interaction liquid chromatography (HILIC) with subsequent MS detection based on optimised MRM transitions. Matrix-matched calibration and quality control samples were prepared for quantification of OATD-02 and the reference ARGi. Due to the endogenous character of L-arginine, a surrogate matrix was used for its detection.
All statistical analyses were performed using GraphPad Prism (ver. 9, GraphPad Software, Inc., San Diego, CA, USA). Data sets with normal distribution were described as means with SEM (standard error of the mean). Otherwise, the median value was shown and the U Mann–Whitney or the Kruskal–Wallis tests were applied for intergroup comparisons. Differences at p-value less than 0.05 were considered statistically significant. […]

CN(C)C[C@@H]1CC[C@@H](CCB(O)O)C[C@]1(N)C(=O)O [OATD-02]
IC50 [1]: 17 nM | TGI, CT26 tumor growth inhibition - day 24 [2]: 33% | TGI, syngeneic Renca model ([3]; 75 mg/kg PO BID from day 1, day 22 post-inoculation, not statistically significant): 31% | levels of Tregs in the tumour microenvironment ([3]; Renca tumours, flow cytometry, Foxp3+ within CD4+ T cells, p = 0.0196): decreased levels | levels of MDSCs in the tumour microenvironment ([3]; Renca tumours, flow cytometry, p = 0.0173): decreased levels | CD8+/Treg cell ratio ([3]; Renca tumours, flow cytometry, p = 0.0281): beneficial increase | levels of neutrophils in the tumour microenvironment ([3]; Renca tumours, flow cytometry, p = 0.0284): decreased levels | fold increase in plasma L-arginine ([3]; Renca-bearing mice, 75 mg/kg PO BID, 16 h upon last dose): 6.6 fold
